14 compounds from PubChem BioAssay (NCI) can be followed below.

Test in all cases: NCI anticancer screen, dose series, 48 h
Test [1] relates to 786-0 renal.
Test [2] concerns A549 NSCLC.
Test [3] concerns ACHN renal.
For test [4], the system named is CCRF-CEM leukemia.
Test [5] relates to K-562 leukemia.
The test system of test [6] is NCI-H460 lung.
The test system of test [7] is SK-OV-3 ovarian.
Test [8] concerns TK-10 renal.
Test [9] deals with UACC-257 melanoma.
Test [10] deals with UACC-62 melanoma.
The subject of test [11] is SR leukemia.

Molecules are shown by their SMILES.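 Tested at 5 concentrations; 48 h exposure; 96-well plates; endpoints linearly interpolated, else capped at highest concentration. The concentration for 50% growth inhibition is given as GI50. TGI: total growth inhibition.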

For `CN(C)c1ccc(/C=C2\N=C(c3ccccc3)N(c3nc4ccc(Sc5ccccc5)cc4[nH]3)C2=O)cc1`, the TGI in [1] is > 100 µM; in test [2], > 100 µM; in test [3] it was > 100 µM; in test [4] it was > 100 µM; in test [5], 96.6 µM; in test [6], > 100 µM. Moreover, the TGI in test [7] came out at 49.2 µM; in test [8], 81.3 µM; in test [9], 90.9 µM; in test [10], 82.4 µM.
As for `CC1OC23CCCCC2C(C#N)(C#N)C1(C#N)C(=N)O3` (configuration not stated), the TGI in test [1] is 28.6 µM; in test [2], > 100 µM; in [3], 42.8 µM; in [4], 46.8 µM; in [5] it was > 100 µM; in test [6] it was 43.5 µM. In addition, the TGI is > 100 µM in [7], 46.8 µM in test [8] and 37.6 µM in test [9].
Turning to `CCOC(=O)CCC(C(=O)OCC)n1nnc2cc(Nc3c(C)[n+]([O-])c4cc(Cl)ccc4[n+]3[O-])ccc21` (configuration not stated), the TGI in test [1], in [2], in [3], in test [4], in [5] and in test [6] was > 100 µM in each case. Moreover, the TGI in test [7], in test [8], in [9] and in test [10] was > 100 µM throughout.
As for `COc1cc2c(cc1OCCN1CCN(CCOc3cc4c(cc3OC)C(=O)N3CCC[C@H]3C=N4)CC1)N=C[C@@H]1CCCN1C2=O`, the TGI was > 76.8 µM in test [1]; > 100 µM in test [2]; > 91.6 µM in test [3]; > 100 µM in test [4]; > 60.5 µM in test [5]; > 100 µM in [6]. The TGI was > 100 µM in test [7], 87.8 µM in test [8], > 100 µM in [9] and 40 µM in test [10]. Further, the GI50 in test [4] was 4.49 µM.
With `CC1=NN(C(=O)CC(=O)Nc2cccc(C)c2)C(=O)C1N=Nc1ccc(C(=O)O)cc1` (configuration not stated), the TGI in test [1], in test [2], in test [3], in [4], in test [5] and in test [11] was > 100 µM in each case. Also, the TGI in test [8], in test [9] and in test [10] was > 100 µM in each case.
Take `COc1cc(CNc2nc3c(NC(C)=O)cc(C(F)(F)F)cc3nc2-c2ccccc2)cc(OC)c1OC`: the TGI in [2], in test [3], in [4], in test [5], in test [7] and in test [11] was > 100 µM each time. For the same compound, the TGI in test [8] and in test [10] was > 100 µM each time.
Turning to `CCn1c(-c2cc3ccccc3cc2OC(C)=O)n[nH]c1=S`, the TGI in test [1] was > 100 µM; in [3] it was > 100 µM; in test [4], 34.2 µM; in test [5] it was 33.1 µM; in test [6], 69.8 µM; in test [7] it was > 100 µM. Also, the TGI came to 4.79 µM in [11], 75.6 µM in [8] and 62.6 µM in test [9].
On to `CC(C)(C)c1cc(C(C)(C)C)c2sc(=O)oc2c1O`, for which the TGI in test [1] was 38.1 µM; in [2], 27.6 µM; in [3] it was 24.8 µM; in test [4], > 100 µM; in test [5], 30.4 µM; in [6], 18.8 µM. Further, the TGI in [7] amounted to 35.3 µM; in test [11], 63.6 µM; in test [8], 24.1 µM; in [9] it was 20.2 µM.
On to `Cc1cc(Br)c(O)c(-c2cscn2)c1`, for which the TGI came out at 8.39 µM in [1]; 50.4 µM in test [2]; 36.6 µM in test [3]; 28.6 µM in test [4]; 25.2 µM in test [5]; 49.6 µM in test [6]. Moreover, the figures for the TGI in test [7], in test [8] and in [10] were > 100 µM, 42 µM and 28.2 µM, respectively.
For the compound `COc1ccc(C=C2C(C)=NN(c3cccc(Cl)c3)C23C(Cl)C(=O)N3c2nc3ccccc3s2)cc1` (configuration not stated), the TGI in [1] is 29.4 µM; in test [3], 51.6 µM; in test [4], 30.5 µM; in test [5] it was > 100 µM; in test [6], 66.6 µM; in [7], 89.7 µM. In addition, the TGI in test [11] was 85.7 µM; in [8] it was > 100 µM; in test [9] it was 72.3 µM.
Turning to `CC(C)NC(=O)OCCN=C1c2ccccc2C(Br)C(Br)c2ccccc21` (configuration not stated), the TGI in test [1] turned out to be 8.34 µM; in test [2], 62.4 µM; in test [3], 25.4 µM; in test [4], 1.69 µM; in test [5], 3.62 µM; in test [6], 32.4 µM. Also, the TGI in test [7] was > 62.9 µM; in test [8] it was 21.6 µM; in test [9], 35.8 µM; in test [10] it was 31.1 µM.
Take `COc1cc2ccc(C(C)NCC#N)cc2cc1OC` (configuration not stated): the TGI in [1], in test [2], in test [3], in [5], in test [6] and in test [7] was > 100 µM in each case. For the same compound, the TGI in test [11], in test [8], in test [9] and in test [10] was > 100 µM each time.
As to `N#CC(c1cc(Cl)ncn1)c1nc2cc(C(F)(F)F)ccc2s1` (configuration not stated), the TGI in test [1] is 13.4 µM; in test [2], > 100 µM; in test [3], 59.6 µM; in [5] it was > 100 µM; in test [6], > 100 µM; in test [7] it was 53.7 µM. Moreover, the TGI in test [8] and in [9] was > 100 µM in each case.
Consider `CC(=O)N1CN2C(=O)CCC2c2cc(C)ccc21` (configuration not stated), for which the TGI in test [1], in test [2], in [3], in [4], in test [5] and in test [6] was > 100 µM each time. The TGI in test [7], in [8], in [9] and in [10] was > 100 µM throughout.
